US9920074B2 (ACEA BIOSCIENCES INC., priority 2013, dated 2018)
“Also recorded” adds a separate entry of the source. Read-outs that look alike come from different tables or passages of the source.

Key:
[1] = biological target: T1, free Btk protein from Ramos cells (Homo sapiens, UniProt Q06187); experiment: Btk target site occupancy ELISA assay; type: cell-based; details: for IC50: ELISA
T1 construct: endogenous in cells; host or cells: Ramos cells (ATCC)
Procedure: (§1) Ramos cells were treated with Compound I-1 at indicated concentrations for 1 h, followed by stimulation with 6 μg/mL of IgM for 30 mm, and then lysed. Lysates were incubated with Compound I-21 (biotin labeled) at a final concentration of 1 μM in a PBS, 0.05% Tween-20, 1% BSA solution while shaking for 1 h at room temperature. Samples were transferred to a streptavidin-coated 96-well ELISA plate and mixed while shaking for 1 h at room temperature. The Btk antibody (BD 611116, 1:1000 dilution in PBS+0.05% Tween-20+0.5% BSA) was then applied and incubated for 1 h at room temperature. After wash, goat anti-mouse-HRP (Pierce 31432, 1:1000 dilution in PBS+0.05% Tween-20+0.5% BSA) was added and incubated for 1 h at room temperature. The ELISA was developed with addition of tetramethyl benzidine (TMB) followed by Stop Solution and read at OD 450 nm.
as §1, with “Compounds” for “Compound I-1”, “anti-IgM” for “IgM”, “diluted” for “dilution”, “tetramethylbenzidine” for “tetramethyl benzidine”

[2] = biological target: T2, Btk (Tyr223) phosphorylation in Ramos cells (Homo sapiens, UniProt Q06187); experiment: Btk Tyr223 phosphorylation inhibition, western blotting assay (Example 72); type: cell-based
T2 construct: endogenous in cells; host or cells: Ramos cells (ATCC)
Procedure: Ramos cell line was obtained from the American Type Culture Collection and was maintained at 37° C. with 5% CO2, in media supplemented with 10% fetal bovine serum, penicillin (100 units/mL) and streptomycin (100 μg/mL), Goat F(ab′)2 Anti-Human IgM-UNLB was obtained from SouthernBiotech.
Ramos cells were treated with compounds at indicated doses for 45 min at room temperature, followed by stimulation of 12 μg/mL of IgM for 30 min, and then lysed. Western blots were performed on the cell lysate using Phospho-Btk (Tyr223), Phospho-Btk (Tyr551), Btk, Phospho-PLCγ2 (Tyr1217), PLCγ2, Phospho-p44/42 MAPK (Erk1/2) (Thr202/Tyr204) and p44/42 MAPK (Erk1/2) antibodies (Cell Signaling Technology). The density of blotting band was acquired using ImageJ software, and the IC50 of Btk (Tyr223) phosphorylation was fitted using a non-linear regression model by GraphPad Prism version 4.0.

T2 sequence (Q06187 whole entry): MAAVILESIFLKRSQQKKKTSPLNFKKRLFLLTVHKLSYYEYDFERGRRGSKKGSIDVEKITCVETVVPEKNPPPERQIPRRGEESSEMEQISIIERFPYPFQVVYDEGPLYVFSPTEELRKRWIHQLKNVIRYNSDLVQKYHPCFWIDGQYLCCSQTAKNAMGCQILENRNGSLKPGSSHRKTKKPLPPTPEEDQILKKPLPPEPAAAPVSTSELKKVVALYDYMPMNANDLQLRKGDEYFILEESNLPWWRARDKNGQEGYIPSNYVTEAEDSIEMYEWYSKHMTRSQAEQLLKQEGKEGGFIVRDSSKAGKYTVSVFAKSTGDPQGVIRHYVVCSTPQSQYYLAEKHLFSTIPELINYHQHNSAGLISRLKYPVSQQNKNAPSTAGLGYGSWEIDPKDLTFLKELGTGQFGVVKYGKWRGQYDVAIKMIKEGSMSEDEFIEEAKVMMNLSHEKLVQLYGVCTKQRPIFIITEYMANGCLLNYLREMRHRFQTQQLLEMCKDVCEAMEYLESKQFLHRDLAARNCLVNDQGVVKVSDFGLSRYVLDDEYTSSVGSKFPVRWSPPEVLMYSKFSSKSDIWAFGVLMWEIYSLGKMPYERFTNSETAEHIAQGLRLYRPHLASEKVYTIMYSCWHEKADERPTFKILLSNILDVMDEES
T1 sequence (Q06187 whole entry): as above

**Q.** How did the IC50 ([1]; 1 h, read-out: Btk Occupancy Assay (IC50)) turn out when `C=CC(=O)Nc1cccc(Oc2nc(Nc3ccc(N4CCN(C)CC4)cc3)ncc2OC)c1` [Compound I-1, N-(3-(5-methoxy-2-(4-(4-methylpiperazin-1-yl)phenylamino)pyrimidin-4-yloxy)phenyl)acrylamide] was run?
**A.** Its IC50 is at most 10 nM.

**Q.** And the “OD 450 (average)” value ([1]; Compound I-1 0.2 nM)?
**A.** Its value is 0.1686.

**Q.** What about the “free Btk” value ([1]; Compound I-1 0.2 nM) of the same compound?
**A.** The value was 2414 pg.

**Q.** And the “OD 450 (average)” value ([1]; Compound I-1 0.7 nM)?
**A.** The value was 0.1811.

**Q.** And the “free Btk” value ([1]; Compound I-1 0.7 nM)?
**A.** Its value is 2592 pg.

**Q.** What about the “OD 450 (average)” value ([1]; Compound I-1 3 nM) of the same compound?
**A.** The value was 0.1219.

**Q.** What about the “free Btk” value ([1]; Compound I-1 3 nM) of the same compound?
**A.** Its value is 1747 pg.

**Q.** What about the “OD 450 (average)” value ([1]; Compound I-1 12 nM) of the same compound?
**A.** Its value is −0.0161.

**Q.** What about the “free Btk” value ([1]; Compound I-1 12 nM) of the same compound?
**A.** Its value is -224 pg.

**Q.** And the “OD 450 (average)” value ([1]; Compound I-1 47 nM)?
**A.** Its value is 0.0114.

**Q.** And the “free Btk” value ([1]; Compound I-1 47 nM)?
**A.** Its value is 168 pg.

**Q.** And the “OD 450 (average)” value ([1]; Compound I-1 188 nM)?
**A.** Its value is −0.0207.

**Q.** What about the “free Btk” value ([1]; Compound I-1 188 nM) of the same compound?
**A.** The value was -290 pg.

**Q.** And the “OD 450 (average)” value ([1]; Compound I-1 750 nM)?
**A.** Its value is −0.0456.

**Q.** What about the “free Btk” value ([1]; Compound I-1 750 nM) of the same compound?
**A.** Its value is -646 pg.

**Q.** And the “OD 450 (average)” value ([1]; Compound I-1 3000 nM)?
**A.** The value was −0.0487.

**Q.** And the “free Btk” value ([1]; Compound I-1 3000 nM)?
**A.** The value was -689 pg.

**Q.** What about the IC50 ([1]; read-out: BTK target site occupancy IC50) of the same compound?
**A.** Its IC50 is 0.5 nM.

**Q.** What about the “occupancy of the Btk proteins” value ([1]; increasing concentrations) of the same compound?
**A.** The value was “dose-dependent occupancy of the BTK proteins correlates with its inhibitory activity of BTK kinase”.

**Q.** And the IC50 ([2]; Btk Tyr223 phosphorylation, 45 min, 12 μg/mL IgM, read-out: BTK Inhibition)?
**A.** The IC50 was under 10 nM.

**Q.** And the IC50 ([2]; treated 45 mins, read-out: inhibition IC50 of the phosphorylation of BTK protein)?
**A.** The IC50 was 1.1 nM.

**Q.** What about the “reduction of the Btk Tyr223 phosphorylation in Ramos cells” value ([2]; western blot) of the same compound?
**A.** Its value is “reduction of the Btk Tyr223 phosphorylation; also recorded: dose-dependent inhibition of the BTK phosphorylation”.
